Assay results from patent publication US12139526B2, “Modified chimeric receptors and related compositions and methods” (Juno Therapeutics, Inc., priority 2015, dated 2024).

Assays:
Experiment in all cases: REVEAL Epitope Discovery System in vitro MHC-peptide binding score
HLA-A*03:01 = HLA-A*03:01 (Homo sapiens, UniProt P04439); conditions: positive control peptide set at 100%, greater than 50 = good or high affinity binding
Method: (§1) Actual binding affinities for certain HLA class I alleles (A*02:01, A*03:01. A*11:01, and B*08:01) were assessed in vitro for exemplary overlapping 9 amino acid peptide sequences within a portion of the 26 amino acid junction region spanning the CD28 and 4-1BB junction. Specifically, assessment was of a series of overlapping 9-mer peptides derived from the sequence […] (set forth in SEQ ID NO: 7), which contains a portion of the CD28 transmembrane domain and 4-1BB costimulatory domain spanning the junction between the domains (bond joining the two amino acids noted in underline). In addition, a series of overlapping 9-mer peptides of each of a number of different variants of this portion also were assessed, each variant containing a mutation or mutations in this region as described in Example 2.
(§2) The various 9-mer overlapping peptides were synthesized and their purity tested by MALDI-TOF Mass Spectrometry. The synthetic peptides were then incubated with recombinant MHC molecules to assess binding properties using the REVEAL Epitope Discovery System, which is a high-throughput binding assay that measures the degree to which each peptide is able to stabilize a ternary MHC-peptide complex (ProImmune, Oxford, United Kingdom). Each peptide was separately tested for this ability with respect to each of the HLA class I alleles, normalized to the degree observed for a positive control (known T cell epitope for the relevant allele). The results are reported as a score, in which the binding was normalized to the positive control peptide set at 100%.

HLA-A*02:01 = HLA-A*02:01 (Homo sapiens, UniProt P04439, D140Y/D185E/D98H/E176V/E277Q/G131W/G231S/I119V/I121R/I166T/I218V/L300P/L318F/N151K/N90K/P208A/P217A/Q86G/Q94H/R138H/R169H/T345S); conditions: for A*02:01 In Vitro Score: REVEAL score, positive control peptide set at 100%, greater than 50 = good or high affinity binding
Method: as §1, §2

HLA-B*08:01 = HLA-B*08:01 (Homo sapiens, UniProt P01889, A93T/A95T/D138N/E176V/E187T/K202T/Q94N/R180D/S35A/V36M/Y33D/Y91F); parameters: key: % binding, normalized to positive control peptide set at 100%; conditions: binding normalized to positive control peptide set at 100%, greater than 50 considered good or high affinity binding
Method: as §1, §2

HLA-A*11:01 = HLA-A*11:01 (Homo sapiens, UniProt P04439, A114D/D185E/E176A/F33Y/L180Q/S129P/T187R); parameters: key: % binding, normalized to positive control peptide set at 100%; conditions: binding normalized to positive control peptide set at 100%, greater than 50 considered good or high affinity binding
Method: as §1, §2

AFIIFWVAR [9-mer variant junction peptide, K28A]
A*03:01 In Vitro (HLA-A*03:01): 0.50 | A*02:01 In Vitro Score (HLA-A*02:01): 2.20 | B*08:01 In Vitro Score (HLA-B*08:01): 0.20 | A*11:01 In Vitro Score (HLA-A*11:01): 51.80

AFIIFWVHR [9-mer variant junction peptide, K28H]
A*03:01 In Vitro (HLA-A*03:01): 0.30 | A*02:01 In Vitro Score (HLA-A*02:01): 0.30 | B*08:01 In Vitro Score (HLA-B*08:01): 0.30 | A*11:01 In Vitro Score (HLA-A*11:01): 34.90

AFIIFWVSR [9-mer variant junction peptide, K28S]
A*03:01 In Vitro (HLA-A*03:01): 0.30 | A*02:01 In Vitro Score (HLA-A*02:01): 4.50 | B*08:01 In Vitro Score (HLA-B*08:01): 0.30 | A*11:01 In Vitro Score (HLA-A*11:01): 54.00

FIIFWVHRG [9-mer variant junction peptide, K28H]
A*03:01 In Vitro (HLA-A*03:01): 0.00 | A*02:01 In Vitro Score (HLA-A*02:01): 37.30 | B*08:01 In Vitro Score (HLA-B*08:01): 0.20 | A*11:01 In Vitro Score (HLA-A*11:01): 0.90

FWVARGRKK [9-mer variant junction peptide, K28A]
A*11:01 In Vitro Score (HLA-A*11:01): 8.90

FWVKRGLKK [9-mer variant junction peptide, R31L]
A*02:01 In Vitro Score (HLA-A*02:01): 9.40 | B*08:01 In Vitro Score (HLA-B*08:01): 6.30

FWVKRGNKK [9-mer variant junction peptide, R31N]
A*02:01 In Vitro Score (HLA-A*02:01): 8.70

IFWVARGRK [9-mer variant junction peptide, K28A]
A*03:01 In Vitro (HLA-A*03:01): 53.70 | A*02:01 In Vitro Score (HLA-A*02:01): 1.00 | B*08:01 In Vitro Score (HLA-B*08:01): 0.00 | A*11:01 In Vitro Score (HLA-A*11:01): 34.90

IFWVHRGRK [9-mer variant junction peptide, K28H]
A*03:01 In Vitro (HLA-A*03:01): 37.80 | A*02:01 In Vitro Score (HLA-A*02:01): 7.10 | B*08:01 In Vitro Score (HLA-B*08:01): 0.10 | A*11:01 In Vitro Score (HLA-A*11:01): 36.60

IFWVKRGAK [9-mer variant junction peptide, R31A]
A*03:01 In Vitro (HLA-A*03:01): 22.00 | A*02:01 In Vitro Score (HLA-A*02:01): 13.80 | B*08:01 In Vitro Score (HLA-B*08:01): 2.20 | A*11:01 In Vitro Score (HLA-A*11:01): 69.70

IFWVKRGHK [9-mer variant junction peptide, R31H]
A*03:01 In Vitro (HLA-A*03:01): 9.00 | A*02:01 In Vitro Score (HLA-A*02:01): 2.20 | B*08:01 In Vitro Score (HLA-B*08:01): 3.20 | A*11:01 In Vitro Score (HLA-A*11:01): 30.90

IFWVKRGLK [9-mer variant junction peptide, R31L]
A*03:01 In Vitro (HLA-A*03:01): 26.90 | A*02:01 In Vitro Score (HLA-A*02:01): 2.40 | B*08:01 In Vitro Score (HLA-B*08:01): 58.30 | A*11:01 In Vitro Score (HLA-A*11:01): 61.10

IFWVKRGNK [9-mer variant junction peptide, R31N]
A*03:01 In Vitro (HLA-A*03:01): 8.00 | A*02:01 In Vitro Score (HLA-A*02:01): 3.50 | B*08:01 In Vitro Score (HLA-B*08:01): 0.10 | A*11:01 In Vitro Score (HLA-A*11:01): 45.90

IFWVKRGSK [9-mer variant junction peptide, R31S]
A*03:01 In Vitro (HLA-A*03:01): 10.40 | A*02:01 In Vitro Score (HLA-A*02:01): 2.40 | B*08:01 In Vitro Score (HLA-B*08:01): 1.20 | A*11:01 In Vitro Score (HLA-A*11:01): 47.90

IFWVQRGAK [9-mer variant junction peptide, K28Q/R31A]
A*03:01 In Vitro (HLA-A*03:01): 17.00 | A*02:01 In Vitro Score (HLA-A*02:01): 11.70 | B*08:01 In Vitro Score (HLA-B*08:01): 0.20 | A*11:01 In Vitro Score (HLA-A*11:01): 61.30

IFWVQRGNK [9-mer variant junction peptide, K28Q/R31N]
A*03:01 In Vitro (HLA-A*03:01): 23.20 | A*02:01 In Vitro Score (HLA-A*02:01): 16.10 | B*08:01 In Vitro Score (HLA-B*08:01): 0.10 | A*11:01 In Vitro Score (HLA-A*11:01): 67.50

IFWVQRGRK [9-mer variant junction peptide, K28Q]
A*03:01 In Vitro (HLA-A*03:01): 36.70 | A*02:01 In Vitro Score (HLA-A*02:01): 6.10 | B*08:01 In Vitro Score (HLA-B*08:01): 0.00 | A*11:01 In Vitro Score (HLA-A*11:01): 128.50

IFWVSRGRK [9-mer variant junction peptide, K28S]
A*03:01 In Vitro (HLA-A*03:01): 39.20 | A*02:01 In Vitro Score (HLA-A*02:01): 1.30 | B*08:01 In Vitro Score (HLA-B*08:01): 0.00 | A*11:01 In Vitro Score (HLA-A*11:01): 39.20

IIFWVARGR [9-mer variant junction peptide, K28A]
A*03:01 In Vitro (HLA-A*03:01): 18.60 | A*02:01 In Vitro Score (HLA-A*02:01): 9.60 | B*08:01 In Vitro Score (HLA-B*08:01): 0.30 | A*11:01 In Vitro Score (HLA-A*11:01): 70.60

IIFWVHRGR [9-mer variant junction peptide, K28H]
A*03:01 In Vitro (HLA-A*03:01): 30.10 | A*02:01 In Vitro Score (HLA-A*02:01): 4.70 | B*08:01 In Vitro Score (HLA-B*08:01): 0.20 | A*11:01 In Vitro Score (HLA-A*11:01): 77.50

IIFWVKRGA [9-mer variant junction peptide, R31A]
A*03:01 In Vitro (HLA-A*03:01): 42.90 | A*02:01 In Vitro Score (HLA-A*02:01): 85.90 | B*08:01 In Vitro Score (HLA-B*08:01): 0.90 | A*11:01 In Vitro Score (HLA-A*11:01): 22.60

IIFWVKRGL [9-mer variant junction peptide, R31L]
A*03:01 In Vitro (HLA-A*03:01): 15.90 | A*02:01 In Vitro Score (HLA-A*02:01): 82.20 | B*08:01 In Vitro Score (HLA-B*08:01): 1.70 | A*11:01 In Vitro Score (HLA-A*11:01): 32.40

IIFWVKRGN [9-mer variant junction peptide, R31N]
A*03:01 In Vitro (HLA-A*03:01): 4.30 | A*02:01 In Vitro Score (HLA-A*02:01): 9.30 | B*08:01 In Vitro Score (HLA-B*08:01): 0.90 | A*11:01 In Vitro Score (HLA-A*11:01): 42.10

IIFWVKRGR [9-mer of CD28/4-1BB junction region, mutation none]
A*03:01 In Vitro (HLA-A*03:01): 24.30 | A*02:01 In Vitro Score (HLA-A*02:01): 1.70 | B*08:01 In Vitro Score (HLA-B*08:01): 0.00 | A*11:01 In Vitro Score (HLA-A*11:01): 54.50

IIFWVKRGS [9-mer variant junction peptide, R31S]
A*03:01 In Vitro (HLA-A*03:01): 16.20 | A*02:01 In Vitro Score (HLA-A*02:01): 13.60 | B*08:01 In Vitro Score (HLA-B*08:01): 0.40 | A*11:01 In Vitro Score (HLA-A*11:01): 100.00

IIFWVLRGR [9-mer variant junction peptide, K28L]
A*03:01 In Vitro (HLA-A*03:01): 2.80 | A*02:01 In Vitro Score (HLA-A*02:01): 8.40 | B*08:01 In Vitro Score (HLA-B*08:01): 0.40 | A*11:01 In Vitro Score (HLA-A*11:01): 35.20

IIFWVQRGA [9-mer variant junction peptide, K28Q/R31A]
A*03:01 In Vitro (HLA-A*03:01): 2.70 | A*02:01 In Vitro Score (HLA-A*02:01): 95.30 | B*08:01 In Vitro Score (HLA-B*08:01): 0.20 | A*11:01 In Vitro Score (HLA-A*11:01): 56.50

IIFWVQRGR [9-mer variant junction peptide, K28Q]
A*03:01 In Vitro (HLA-A*03:01): 18.00 | A*02:01 In Vitro Score (HLA-A*02:01): 5.80 | B*08:01 In Vitro Score (HLA-B*08:01): 0.10 | A*11:01 In Vitro Score (HLA-A*11:01): 72.80

IIFWVSRGR [9-mer variant junction peptide, K28S]
A*03:01 In Vitro (HLA-A*03:01): 25.30 | A*02:01 In Vitro Score (HLA-A*02:01): 2.60 | B*08:01 In Vitro Score (HLA-B*08:01): 0.00 | A*11:01 In Vitro Score (HLA-A*11:01): 68.90

VAFIIFWVK [9-mer of CD28/4-1BB junction region, mutation none]
A*03:01 In Vitro (HLA-A*03:01): 1.50 | A*02:01 In Vitro Score (HLA-A*02:01): 0.70 | B*08:01 In Vitro Score (HLA-B*08:01): 0.30 | A*11:01 In Vitro Score (HLA-A*11:01): 109.20

WVQRGNKKS [9-mer variant junction peptide, mutation printed K28Q/L34S]
A*11:01 In Vitro Score (HLA-A*11:01): 5.00

B1: K28L: variant anti-CD19 CAR / junction region with K28L, numbering SEQ ID NO:5 (protein)
chain: FWVLVVVGGVLACYSLLVTVAFIIFWVLRGRKKLLYIFKQPFMRPVQTTQEEDGCSCRFPEEEEGGCEL
modifications: CD28-4-1BB
predicted or actual binding affinity or score for HLA class I (HLA-A*02:01; for at least one HLA allele (A*02:01, A*03:01, A*11:01, B*08:01) and/or at least one peptide, in silico or in vitro): reduced predicted or actual binding affinity or score
